Measured values published in the kinase profiling compilation of Christmann-Franck et al. (2016).

Key:
Test in all cases: radiometric filter-binding kinase assay, Kinase HotSpot
Details in all cases: compound 0.5 µM; ATP 10 µM
[1] = system: ARAF (human), P10398 [Y301D/Y302D]
STK33 (human) = STK33 (human) (UniProt Q9BYT3)
DYRK1B (human) = DYRK1B (human) (UniProt Q9Y463)
PRKCH (human) = PRKCH (human) (UniProt P24723)
LTK (human) = LTK (human) (UniProt P29376)
LTK (human), sequence (P29376 whole entry, looked up): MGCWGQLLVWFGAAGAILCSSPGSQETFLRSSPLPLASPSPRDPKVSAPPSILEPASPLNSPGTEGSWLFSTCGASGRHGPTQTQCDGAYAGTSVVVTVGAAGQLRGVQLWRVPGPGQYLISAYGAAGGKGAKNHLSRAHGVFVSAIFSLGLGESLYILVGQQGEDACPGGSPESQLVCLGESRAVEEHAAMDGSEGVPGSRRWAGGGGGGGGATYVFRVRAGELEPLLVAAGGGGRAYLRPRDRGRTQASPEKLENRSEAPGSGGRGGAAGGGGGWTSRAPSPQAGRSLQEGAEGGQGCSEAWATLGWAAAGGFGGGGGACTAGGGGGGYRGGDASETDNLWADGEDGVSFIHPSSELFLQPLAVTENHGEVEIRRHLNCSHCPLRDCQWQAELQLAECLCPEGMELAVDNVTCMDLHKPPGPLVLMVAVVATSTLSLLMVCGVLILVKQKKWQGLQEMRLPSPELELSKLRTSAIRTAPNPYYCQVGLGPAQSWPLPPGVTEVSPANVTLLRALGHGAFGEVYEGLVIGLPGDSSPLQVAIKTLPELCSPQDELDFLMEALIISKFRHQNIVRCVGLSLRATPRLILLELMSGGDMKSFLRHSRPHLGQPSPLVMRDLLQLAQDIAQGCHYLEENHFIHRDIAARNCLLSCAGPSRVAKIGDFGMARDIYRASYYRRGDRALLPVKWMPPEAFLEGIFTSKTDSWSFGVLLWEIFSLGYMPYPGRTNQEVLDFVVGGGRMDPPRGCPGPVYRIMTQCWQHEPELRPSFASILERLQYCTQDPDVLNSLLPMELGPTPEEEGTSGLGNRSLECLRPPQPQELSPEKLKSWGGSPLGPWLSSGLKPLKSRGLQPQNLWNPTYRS

ARAF (human), P10398 [Y301D/Y302D], sequence (P10398 whole entry Y301D/Y302D, looked up): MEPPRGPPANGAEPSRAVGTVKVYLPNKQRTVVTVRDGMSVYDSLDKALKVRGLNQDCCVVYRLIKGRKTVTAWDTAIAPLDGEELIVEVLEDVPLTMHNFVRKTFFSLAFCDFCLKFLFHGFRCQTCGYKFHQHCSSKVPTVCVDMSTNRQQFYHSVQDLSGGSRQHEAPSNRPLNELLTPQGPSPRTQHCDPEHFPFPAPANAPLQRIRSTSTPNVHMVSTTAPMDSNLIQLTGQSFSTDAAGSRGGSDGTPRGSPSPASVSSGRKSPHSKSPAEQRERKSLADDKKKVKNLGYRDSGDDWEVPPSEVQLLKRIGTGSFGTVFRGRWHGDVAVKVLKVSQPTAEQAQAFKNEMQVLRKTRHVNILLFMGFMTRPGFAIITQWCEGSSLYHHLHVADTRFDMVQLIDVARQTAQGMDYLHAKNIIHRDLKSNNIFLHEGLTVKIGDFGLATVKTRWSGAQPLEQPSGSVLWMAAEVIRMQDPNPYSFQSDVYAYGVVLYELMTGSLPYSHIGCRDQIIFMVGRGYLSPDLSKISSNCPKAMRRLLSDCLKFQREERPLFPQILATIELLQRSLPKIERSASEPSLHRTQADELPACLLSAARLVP
PRKCH (human), sequence (P24723 whole entry, looked up): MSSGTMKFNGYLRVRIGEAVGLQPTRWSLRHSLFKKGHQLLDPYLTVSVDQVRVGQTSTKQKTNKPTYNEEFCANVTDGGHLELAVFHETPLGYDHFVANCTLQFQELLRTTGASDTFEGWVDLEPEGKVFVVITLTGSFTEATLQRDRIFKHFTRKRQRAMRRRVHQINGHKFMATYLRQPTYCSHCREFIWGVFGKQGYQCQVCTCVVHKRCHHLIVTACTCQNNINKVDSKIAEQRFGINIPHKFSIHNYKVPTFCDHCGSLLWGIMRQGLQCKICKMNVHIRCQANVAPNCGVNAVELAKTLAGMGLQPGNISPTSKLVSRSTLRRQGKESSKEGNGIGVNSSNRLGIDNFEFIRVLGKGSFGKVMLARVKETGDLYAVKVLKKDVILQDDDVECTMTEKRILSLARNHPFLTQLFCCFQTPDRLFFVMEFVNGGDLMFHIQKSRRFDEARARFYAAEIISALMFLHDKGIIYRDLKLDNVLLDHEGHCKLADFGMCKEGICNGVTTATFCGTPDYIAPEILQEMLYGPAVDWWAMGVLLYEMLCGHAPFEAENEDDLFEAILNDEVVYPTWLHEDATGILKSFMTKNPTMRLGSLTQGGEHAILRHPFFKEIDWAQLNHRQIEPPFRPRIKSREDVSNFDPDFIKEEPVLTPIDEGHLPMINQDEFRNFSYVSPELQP
STK33 (human), sequence (Q9BYT3 whole entry, looked up): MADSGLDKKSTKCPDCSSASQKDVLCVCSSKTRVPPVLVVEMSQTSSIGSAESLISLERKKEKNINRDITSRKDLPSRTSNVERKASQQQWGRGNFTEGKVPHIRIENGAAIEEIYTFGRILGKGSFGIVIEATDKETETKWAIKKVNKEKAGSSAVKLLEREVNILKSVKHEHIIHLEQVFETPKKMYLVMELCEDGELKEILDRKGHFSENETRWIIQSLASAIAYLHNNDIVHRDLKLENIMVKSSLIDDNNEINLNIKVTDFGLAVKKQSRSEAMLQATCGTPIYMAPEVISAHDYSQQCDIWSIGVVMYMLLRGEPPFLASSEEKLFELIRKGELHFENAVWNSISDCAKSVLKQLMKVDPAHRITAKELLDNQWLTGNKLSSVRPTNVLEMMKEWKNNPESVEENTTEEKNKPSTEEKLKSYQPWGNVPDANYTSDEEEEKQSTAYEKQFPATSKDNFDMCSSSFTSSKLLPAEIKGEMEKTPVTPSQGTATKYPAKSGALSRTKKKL
DYRK1B (human), sequence (Q9Y463 whole entry, looked up): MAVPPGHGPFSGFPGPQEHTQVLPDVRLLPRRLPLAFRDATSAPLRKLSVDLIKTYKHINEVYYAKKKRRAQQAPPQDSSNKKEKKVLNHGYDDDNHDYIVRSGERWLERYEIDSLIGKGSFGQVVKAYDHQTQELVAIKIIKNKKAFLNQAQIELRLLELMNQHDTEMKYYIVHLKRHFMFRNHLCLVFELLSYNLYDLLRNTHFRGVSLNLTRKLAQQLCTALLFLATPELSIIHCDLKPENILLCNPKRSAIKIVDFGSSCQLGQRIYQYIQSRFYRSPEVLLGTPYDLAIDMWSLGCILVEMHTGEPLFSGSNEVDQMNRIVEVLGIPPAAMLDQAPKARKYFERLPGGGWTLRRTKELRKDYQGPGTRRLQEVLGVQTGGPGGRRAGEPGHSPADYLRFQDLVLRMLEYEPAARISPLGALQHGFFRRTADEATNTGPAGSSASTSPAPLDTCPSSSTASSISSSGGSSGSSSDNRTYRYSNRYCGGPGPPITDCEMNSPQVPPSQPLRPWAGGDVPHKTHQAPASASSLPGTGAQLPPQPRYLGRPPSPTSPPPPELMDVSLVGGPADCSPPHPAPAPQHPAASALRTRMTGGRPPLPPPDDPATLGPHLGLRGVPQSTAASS

SMILES | residual activity [1] [%] | other results
CC(C)[C@H](CO)Nc1nc(Nc2cc(N)cc(Cl)c2)c2ncn(C(C)C)c2n1 | 82.4 | 
c1ccc(-c2n[nH]cc2-c2ccnc3ccccc23)nc1 | 91.5 | 
N#Cc1c(NC(=O)c2cccc3ccccc23)sc2c1CCCC2 | 104 | 
CCn1cnc2c(Nc3cccc(Cl)c3)nc(N[C@@H]3CCCC[C@@H]3N)nc21 | 116 | 
N#C/C(=C(/N)Sc1ccc(N)cc1)c1ccccc1C(F)(F)F | 98.8 | 
COc1ccc(CNC(=O)Nc2ncc([N+](=O)[O-])s2)cc1 | 91 | 
COc1cc(Nc2c(C#N)cnc3cc(OCCCN4CCN(C)CC4)c(OC)cc23)c(Cl)cc1Cl | 109 | 
C[C@@H]1CCN(C(=O)CC#N)C[C@@H]1N(C)c1ncnc2[nH]ccc12 | 102 | 
O=C1NC(=O)c2c1c1c3ccccc3[nH]c1n1cncc21 | 93.8 | 
CS(=O)(=O)CCNCc1ccc(-c2ccc3ncnc(Nc4ccc(OCc5cccc(F)c5)c(Cl)c4)c3c2)o1 | 85 | 
Nc1ncnc2c1c(-c1ccc(Oc3ccccc3)cc1)cn2C1CCCC1 | 53 | 
CCN(CC)CCNC(=O)c1c(C)[nH]c(/C=C2\C(=O)Nc3ccc(F)cc32)c1C | 124 | 
N#C/C(=C\c1ccc(O)c(O)c1)C(=O)NCc1ccccc1 | 95.2 | 
COc1cc2ncnc(Nc3ccc(Oc4ccccc4)cc3)c2cc1OC | 73.3 | 
COc1ccc(COc2ccc(Cc3cnc(N)nc3N)cc2OC)cc1 | 96.6 | 
O=C1NC(=O)/C(=C/c2ccc3c(c2)OC(F)(F)O3)S1 | 104 | 
c1ccc2c(-c3ccncc3)c[nH]c2c1 | 97.7 | 
COc1ccc(OC)c2c(=S)c3ccccc3[nH]c12 | 122 | 
CCC(=O)Nc1ccc2ncnc(Nc3cccc(Br)c3)c2c1 | 93.4 | 
COc1cc2ncc(-c3ccccc3)nc2cc1OC | 87.6 | 
Cc1cccc(-c2nc(C(C)(C)C)[nH]c2-c2ccc3c(c2)OCO3)n1 | 99.1 | 
COc1ccc2c(c1)/C(=C/c1cnc[nH]1)C(O)=N2 | 111 | 
CC#CC(=O)Nc1cc2c(Nc3ccc(F)c(Cl)c3)ncnc2cn1 | 74.1 | 
Nc1nccc(-c2c(-c3ccc(F)cc3)ncn2C2CCNCC2)n1 | 93.1 | 
O=C(c1cc2cc(O)ccc2[nH]1)c1cc2cc(O)ccc2[nH]1 | 98.6 | 
N#C/C(=C1/Nc2ccccc2S1)c1ccnc(NCCc2cccnc2)n1 | 97.6 | 
COc1cc2ncnc(Nc3cccc(Cl)c3)c2cc1OC | 108 | 

SMILES | residual activity [1] [%] | other results
CN(C)S(=O)(=O)c1ccc2c(c1)/C(=C/c1cc3c([nH]1)CCCC3)C(=O)N2 | 105 | 
COC(=O)[C@]1(O)C[C@@H]2O[C@@]1(C)n1c3ccccc3c3c4c(c5c6ccccc6n2c5c31)C(=O)NC4 |  | residual activity (STK33 (human)): 12.5%; residual activity (DYRK1B (human)): 3.88%; residual activity (PRKCH (human)): 20.5%; residual activity (LTK (human)): 9.78%
N#CCCc1ccc2c(c1)-c1[nH]c3ccc([N+](=O)[O-])cc3c1CC(=O)N2 | 94.5 | 
COc1cc2ncnc(N3CCN(C(=O)Nc4ccc(Oc5ccccc5)cc4)CC3)c2cc1OC | 105 | 
O=C(CCCc1ccc(-c2ccccc2F)cc1)Nc1ccc(O)cc1 | 104 | 
CCN(CC)CCNC(=O)c1c(C)[nH]c(/C=C2\C(=O)Nc3ccc(Cl)cc32)c1C | 132 | 
Cc1ccc(NC2=CC(=O)c3sc(C)nc3C2=O)cc1 | 127 | 
CC[n+]1c(/C=C/N(C)c2ccccc2)n(-c2ccccc2)c2ccc(-c3nc4ccccc4s3)cc21 | 102 | 
COc1cccc(-c2cc(=O)c3ccccc3o2)c1N | 98.9 | 
Cc1[nH]c(/C=C2\C(=O)Nc3ccc(S(=O)(=O)N(C)c4cccc(Cl)c4)cc32)c(C)c1C(=O)N1CCN(C)CC1 | 120 | 
CN(C)CCCn1cc(C2=C(c3c[nH]c4ccccc34)C(=O)NC2=O)c2ccccc21 | 100 | 
CN(C)c1ccc(/C=C2\C(=O)Nc3ccccc32)cc1 | 94.3 | 
O=C1Nc2ccc(Br)cc2/C1=C\c1cc2c([nH]1)CCCC2 | 106 | 
O=C1Nc2ccccc2/C1=C1\Nc2ccccc2\C1=N/O | 100 | 
CNC(=O)c1cc(Oc2ccc(NC(=O)Nc3ccc(Cl)c(C(F)(F)F)c3)cc2)ccn1 | 7.04 | 
Cn1sc(=O)n(Cc2ccccc2)c1=O | 94.6 | 
O=C1NC(=O)/C(=C\c2ccc3nccnc3c2)S1 | 103 | 
Nc1nnc2[nH]c3ccccc3nc1-2 | 119 | 
CC(C)N(CCC(=O)c1ccc2ccccc2c1)Cc1ccccc1 | 104 | 
O=c1cc(N2CCOCC2)oc2c(-c3ccccc3)cccc12 | 105 | 
N#CC(C#N)=C(N)/C(C#N)=C/c1ccc(O)cc1 | 90.8 | 
O=C1Cc2c([nH]c3ccc(Br)cc23)-c2ccccc2N1 | 104 | 
Cn1c2ccccc2c2c3c(c4c5ccccc5n(CCC#N)c4c21)CNC3=O | 103 | 
O=C(Nc1cccc(Nc2cc(Nc3cccc(C(F)(F)F)c3)ncn2)c1)C1CC1 | 95.1 | 
Cn1cnc2cc3c(Nc4cccc(Br)c4)ncnc3cc21 | 119 | 
CCOc1cc2ncnc(Nc3cccc(Br)c3)c2cc1OCC | 105 | 
CCCCc1c(-c2ccc(O)cc2)[nH]c2nccnc12 | 92.6 | 

SMILES | residual activity [1] [%] | other results
O=C1NC(=O)c2cc(Nc3ccc(F)cc3)c(Nc3ccc(F)cc3)cc21 | 90.7 | 
O=C(O)c1ccc2c3c1cccc3c(=O)n1c3ccccc3nc21 | 101 | 
O=C1NC(=O)C(c2c[nH]c3ccccc23)=C1c1c[nH]c2ccccc12 | 155 | 
Cc1cc(Nc2nc(-c3ccccc3)nc3ccccc23)n[nH]1 | 89.7 | 
Oc1cccc(-c2nc(N3CCOCC3)c3oc4ncccc4c3n2)c1 | 92 | 
CO[C@@H]1[C@H](N(C)C(=O)c2ccccc2)C[C@H]2O[C@]1(C)n1c3ccccc3c3c4c(c5c6ccccc6n2c5c31)C(=O)NC4 | 122 | 
COc1cc2c(cc1OC)-c1[nH]nc(Nc3cccc(F)c3)c1C2 | 98.9 | 
Nc1ncnc2c1cnn2-c1ccccc1 | 99.3 | 
COc1cc2c(Nc3ccc(Br)cc3F)ncnc2cc1OCC1CCN(C)CC1 | 84 | 
CCOC(=O)c1c(C)[nH]c(/C=C2\C(=O)Nc3ccccc32)c1C | 94.7 | 
Nc1cccc(-c2cc3c(Oc4cccc(O)c4)ncnc3[nH]2)c1 | 57.3 | 
CCc1nc(-c2ccc(OC)cc2)[nH]c1-c1ccncc1 | 99.6 | 
O=C(Nc1cccc(Nc2nccc(Nc3cccc(C(F)(F)F)c3)n2)c1)C1CC1 | 90.2 | 
N#Cc1c[nH]c2c[nH]/c(=N\Cc3cccnc3)cc2/c1=N\c1ccc(F)c(Cl)c1 | 106 | 
CCN(CC)CCCCN1c2ccccc2Oc2ccc(Cl)cc21 | 103 | 
COc1cc2c(N3CCN(C(=O)Nc4ccc(OC(C)C)cc4)CC3)ncnc2cc1OCCCN1CCCCC1 | 103 | 
CN(C)C[C@H]1CCn2c(c(C3=C(c4cn(C)c5ccccc45)C(=O)NC3=O)c3ccccc32)C1 | 109 | 
Cc1ccc(Nc2nccc(N(C)c3ccc4c(C)n(C)nc4c3)n2)cc1S(N)(=O)=O | 76.5 | 
c1ccc(-c2n[nH]c3c2oc2ccccc23)cc1 | 93.8 | 
O=C1C(Cl)=C(N2C(=O)CCC2=O)C(=O)c2ccccc21 | 105 | 
O=c1[nH]c2ccccc2n1C1CCN(Cc2ccc(-c3nc4cc5[nH]cnc5cc4nc3-c3ccccc3)cc2)CC1 | 99.2 | 
COc1ccc(Cl)cc1NC(=O)Nc1cc(C)nc2ccccc12 | 92.4 | 
FC(F)(F)c1ccc(/C=C/c2nc(COc3ccc(CCCCn4ccnn4)cc3)co2)cc1 | 102 | 
O=S(=O)(NCCNC/C=C/c1ccc(Br)cc1)c1cccc2cnccc12 | 95.8 | 
Nc1ncnc2[nH]nc(Nc3ccc(F)cc3)c12 | 80.7 | 
